Assay results taken from PMC8145641 (Cells, 2021).
In brackets after ≈: the same amount, converted by molar mass. Where two headings read alike, the source gives them in different places.

Experiments:
[1] = test system: tachyzoites of the RH-GFP strain; experiment: Influence of compounds during Toxoplasma growth, Assay A (invasion); format: cell-based, Toxoplasma gondii
Protocol: (§1) Influence of Compounds during Toxoplasma Growth (Assay A and B): Hs27 cells were cultured on Lab-Tek™ 4-well Chamber Slides (Nunc, Thermo Fisher Scientific, Waltham, MA, USA) (5 × 10^4 cells/500 μL per well).
Assay A—after 48 h, the medium was removed and then 5 × 10^5/500 µL/well tachyzoites of the RH-GFP strain were added to the cell monolayers, in parasite culture medium with the selected compounds at IC50 concentration: 2b, 5b, 8b, 11b or 12b, for 3 h. Then, the cells were washed to remove extracellular parasites and parasite culture medium (without any compounds) was added for 24 h.
(§2) In both assays as the controls, Hs27 cells were infected, but not treated. After subsequent 24 h of incubation (Assay A and B), the slides were washed with sterile PBS, fixed with formaldehyde solution (252549, Sigma-Aldrich), 3.7% in PBS for 20 min and stained with DAPI for 10 min (1 mg/mL, ThermoFisher Scientific). Microscopic analysis of 100 cells in turn, comprised of counting the infected cell ratio and tachyzoites per each parasitophorous vacuoles of infected cell, was performed using a fluorescent microscope (Axio Scope.A1, Carl Zeiss, Jena, Germany) at a magnification ×1000. For image processing ZEISS ZEN Microscope Software version 3.1 was used. Three independent experiments on triplicate chamber slides using the same conditions for both assays were performed.

[2] = test system: Hs27 (human foreskin fibroblast); experiment: Cytotoxicity assay (MTT); format: cell-based; conditions: 24 h treatment
T. gondii RH-GFP [3] = experiment: microbe, parasite or virus in culture; format: cell-based, Toxoplasma gondii
Protocol: Cell and parasite culture: The Hs27 (human foreskin fibroblast) (ATCC® CRL-1634™) (ATCC, Manassas, VA, USA) were culturing in DMEM (Dulbecco’s modified Eagle’s medium-ATCC® 30-2002™, ATCC) supplemented with 10% fetal bovine serum (fetal bovine serum, ATCC® 30-2020™, ATCC), 100 I.U./mL penicillin and 100 μg/mL streptomycin (penicillin-streptomycin solution ATCC® 30-2300™, ATCC). Cells were trypsinized (Trypsin-EDTA Solution ATCC® 30-2101™, ATCC) twice a week and seeded at a density of 1 × 10^6 per T25 cell culture flask and incubated in a 37 °C and 5% CO2 to achieve a confluent monolayer. The RH strain of Toxoplasma gondii (RH-GFP ATCC® 50940™, ATCC, highly virulent, haplogroup first, expression of green fluorescent protein) was maintained as tachyzoites, in parasite culture medium, which contains DMEM medium with 3% HIFBS (heat-inactivated FBS; 1 h in 56 °C). Infected tissue culture cells were incubated in a 37 °C and 5% CO2.
After 72 h of incubation, the medium was removed and then 1 × 10^5 per well of tachyzoites of the RH strain were added to the cell monolayers, in DMEM without phenol red with 3% HIFBS. One hour later, the compounds and drugs dilutions in the DMEM without phenol red medium were added to the Hs27 cells with T. gondii. Concentration of the compounds below cytotoxic concentration (<CC30), sulfadiazine 0–10,000 μM and trimethoprim, pyrimethamine and atovaquone 0–200 μM. After a subsequent 96 h of incubation, the plates were read with covered lids, and both excitation (475 nm) and emission (509 nm) from the bottom using multimode microplate reader SpectraMax® i3. The results were expressed as mean fluorescent intensity (MFI) and transformed to the percentage of viability compared to untreated cells. Finally, the inhibitory concentrations for 50% inhibition of T. gondii proliferation (IC50) were calculated. All experiments were performed in triplicate.
Graphs and statistical analyses: Statistical analyses and graphs were performed using GraphPad Prism version 9.0.0 for macOS (GraphPad Software, San Diego, CA, USA). […] Additionally, a relationship between cytotoxicity and antiparasitic activity were calculated as the ratio of the 30% cytotoxic concentration (CC30) to the 50% antiparasitic concentration (IC50) and presented as the selectivity index (SI).

[4] = test system: tachyzoites of the RH-GFP strain; experiment: Influence of compounds during Toxoplasma growth, Assay B (intracellular proliferation); format: cell-based, Toxoplasma gondii; conditions: 3 h infection without compound, washed, 24 h with compound at IC50
Protocol: as §1
Assay B—after 48 h, the medium was removed and then 5 × 10^5/500 µL/well tachyzoites of the RH-GFP strain were added to the cell monolayers, in parasite culture medium for 3 h.
as §2

T. gondii RH-GFP [5] = experiment: Kinetics of T. gondii growth, Assay 2 (pre-incubated extracellular tachyzoites); format: cell-based, Toxoplasma gondii; conditions: 24 h after infection
Protocol: (§3) Kinetics of T. gondii growth: The effect of 12b and drugs on kinetics of T. gondii RH-GFP growth was performed as follows: 1 × 10^4 per well of Hs27 cells were seeded on black, 96-well, tissue culture-treated plates with optical bottoms in DMEM cell culture medium.
Assay 2—After 72 h of incubation, the medium was removed and DMEM without phenol red with 3% HIFBS, was added. In the new 96-well, tissue culture-treated plates 2 × 10^5 per well of tachyzoites of the RH strain were added and treated for 3, and 6 h with the compound 12b and drugs (diluted in the DMEM without phenol red medium) at 37 °C. Then tachyzoites were wash out three times in DPBS, resuspended in DMEM without phenol red medium with 3% HIFBS, and finally 1 × 10^5 per well of tachyzoites were added to the Hs27 cells.
The plates were read with covered lids, and both excitation (475 nm) and emission (509 nm) from the bottom using multimode microplate reader SpectraMax® i3. Additionally, fluorescence measurement was performed every 24 h. The plates were incubated at 37 °C with 5% of CO2. The results were expressed as mean fluorescent intensity (MFI). The initial value for 1 × 10^5 of T. gondii RH-GFP was 37,000 MFI (log 4.57). The lower limit of detection was 1000 MFI (log 3.0). Data presented as a logarithm of mean fluorescence intensity (logMFI) on concentration and time dependent curves. […]

T. gondii RH-GFP [6] = experiment: Kinetics of T. gondii growth, Assay 1 (intracellular tachyzoites); format: cell-based, Toxoplasma gondii; conditions: for effect on the kinetics of T. gondii growth: Assay 1 and Assay 2, Figure 12
Protocol: as §3
Assay 1—After 72 h of incubation, the medium was removed and then 1 × 10^5 per well of tachyzoites of the RH strain were added to the cell monolayers, in DMEM without phenol red with 3% HIFBS. One hour later, the compound 12b and drugs dilutions in the DMEM without phenol red medium were added to the Hs27 cells with T. gondii.
The plates were read with covered lids, and both excitation (475 nm) and emission (509 nm) from the bottom using multimode microplate reader SpectraMax® i3. Additionally, fluorescence measurement was performed every 24 h. The plates were incubated at 37 °C with 5% of CO2. The results were expressed as mean fluorescent intensity (MFI). The initial value for 1 × 10^5 of T. gondii RH-GFP was 37,000 MFI (log 4.57). The lower limit of detection was 1000 MFI (log 3.0). Data presented as a logarithm of mean fluorescence intensity (logMFI) on concentration and time dependent curves. All experiments were performed in triplicate.

T. gondii = conditions: values from the earlier paper; ref [25]; cited from earlier work
[7] = compared to non-treated host cells, compound at IC50 concentration, assay not named in abstract
[8] = compound at IC50 present 3 h during infection, washed, 24 h free medium, vs non-treated
[9] = ratio of CC30 (Hs27) to IC50 (T. gondii); 1b–12b and positive controls
[10] = Toxoplasma gondii, HS27, 96 h, read-out: IC50 (50% inhibition of T. gondii proliferation)

| SMILES | reduction in number of tachyzoites per vacuole [1, 7] | reduction in the percentage of infected host cells [1, 7] | number of tachyzoites per vacuole (Assay A) [1, 8] | percentage of infected cells (Assay A) [1, 8] | CC30 (cytotoxic concentration causing 30% of cells proliferation inhibition) [2] | IC50 (T. gondii RH-GFP [3]; Toxoplasma gondii, HS27, 96 h; read-out: IC50 (50% inhibition of T. gondii proliferation)) | SI (selectivity index, CC30/IC50) (T. gondii RH-GFP [3]; [9]) | number of intravacuolar tachyzoites (Assay B) [4] | percentage of infected cells (Assay B) [4] | size of parasitophorous vacuole (Assay B) [4] | reduction of the number of newly formed parasites in Hs27 host cells (T. gondii RH-GFP [5]; 3 h pre-incubation of tachyzoites) | reduction of the number of newly formed parasites in Hs27 host cells (T. gondii RH-GFP [5]; 6 h pre-incubation of tachyzoites) | inhibition at 250 µM (T. gondii RH-GFP [6]; Toxoplasma gondii, Assay 1, 250 µM (95.50 µg/mL), first 24 h post-infection, maintained for the next 72 h) | IC50 (T. gondii RH-GFP [3]; [10]) | IC50 (50% inhibition of T. gondii proliferation) (T. gondii) | effect on the kinetics of T. gondii growth (T. gondii RH-GFP [6]) |
| --- | --- | --- | --- | --- | --- | --- | --- | --- | --- | --- | --- | --- | --- | --- | --- | --- |
| Cc1nc[nH]c1-c1nnc(Nc2ccc(I)cc2)s1 [12b] | 93% | 44% | significant reductions | significant reductions | 98.18 µg/mL | 4.7 µg/mL (≈ 12.3 µM) | 20.89 | significant reduction | still the same | significant reduction | 80% | 89% | 97% |  |  |  |
| Nc1ccc(S(=O)(=O)Nc2ncccn2)cc1 [Sulfadiazine (SUL), Sulfadiazine, reference compound] |  |  |  |  | 2230.61 µg/mL |  | 1.78 |  |  |  |  |  |  | 1250 µg/mL (≈ 5010 µM) | 2721.45 µg/mL | only moderately slow down the proliferation of tachyzoites |
| COc1cc(Cc2cnc(N)nc2N)cc(OC)c1OC [Trimethoprim (TRI), Trimethoprim, reference compound] |  |  |  |  | 17.78 µg/mL |  | 1.20 |  |  |  |  |  |  | 14.8 µg/mL (≈ 50.9 µM) | 12.13 µg/mL | only moderately slow down the proliferation of tachyzoites |
